{"source": "paper PMC5907623", "about": "(Cancer Chemotherapy and Pharmacology, 2018)", "type_in_all_cases": "in vivo, human", "key": {"[1]": {"test": "Part A: steady-state PK of AZD5363 tablet versus capsule, partially fasted, in patients with advanced solid malignancies", "protocol": "PK parameters were assessed on the fourth day of Week 1 and Week 2 (i.e. on Day 4 and Day 11). […] In addition, pre-dose samples were drawn on Day 8 in Part B to verify that a washout period of 3.5 days was adequate for AZD5363. […] Following the addition of internal standard ([^13C6]AZ12886380), calibration, quality control (QC) and study samples (25 µL) were processed by solid-phase extraction then assayed for AZD5363 by liquid chromatography–tandem mass spectrometry. […] All trial samples were analysed within the known stability period for AZD5363 and all a priori assay acceptance criteria were met, in accordance with regulatory guidance. […] PK parameters were derived using non-compartmental methods (Phoenix® WinNonlin®). Plasma concentration–time profiles were analysed to determine Cmax, Cmin and tmax, while AUCτ was determined from application of the linear-up/log-down trapezoidal rule. […] The statistical analysis for estimating the food and capsule effect was based on analysing log-transformed PK parameters AUCτ and Cmax using a fixed-effects model with terms for patient and treatment only. […] Other PK parameters are presented descriptively."}, "[2]": {"test": "Part B: effect of food (overnight fast versus standardized meal) on steady-state PK of AZD5363 tablet in patients", "settings": "for AUCτ, Gmean (CV%) / Cmax, Gmean (CV%) / Cmin, Gmean (CV%) / tmax, median (range): tablet 480 mg bid, steady state, N = 9", "protocol": "(§1) Patients had been fasting overnight prior to the breakfast and no further food was permitted for 4 h post-dose.\nThe bioanalytical method used to generate AZD5363 plasma concentration data for the derivation of PK parameters for the study had been previously validated, according to regulatory guidance, by Covance UK Ltd on behalf of AstraZeneca. Following the addition of internal standard ([^13C6]AZ12886380), calibration, quality control (QC) and study samples (25 µL) were processed by solid-phase extraction then assayed for AZD5363 by liquid chromatography–tandem mass spectrometry. […] All trial samples were analysed within the known stability period for AZD5363 and all a priori assay acceptance criteria were met, in accordance with regulatory guidance.\nPK parameters were derived using non-compartmental methods (Phoenix® WinNonlin®). Plasma concentration–time profiles were analysed to determine Cmax, Cmin and tmax, while AUCτ was determined from application of the linear-up/log-down trapezoidal rule.\nThe statistical analysis for estimating the food and capsule effect was based on analysing log-transformed PK parameters AUCτ and Cmax using a fixed-effects model with terms for patient and treatment only. All statistical calculations and analyses were performed with SAS® software, version 9.1.3 or higher. Other PK parameters are presented descriptively."}, "[3]": {"test": "Part A: safety and tolerability (adverse events, CTCAE v4.0) of AZD5363 tablet and capsule", "protocol": "PK parameters were assessed on the fourth day of Week 1 and Week 2 (i.e. on Day 4 and Day 11). […] Any AE occurring after the first dose of study treatment and up to 28 days after the last dose of study treatment was included in the AE summaries. The safety analysis set comprised all patients who received at least one dose of AZD5363. All safety data are presented descriptively."}, "[4]": {"test": "Part B: safety and tolerability (adverse events, CTCAE v4.0) of AZD5363 tablet, fasted versus fed", "protocol": "as §1\nSafety assessments throughout the study encompassed the incidence and severity of AEs (graded according to Common Terminology Criteria for Adverse Events [CTCAE] version 4.0), in addition to laboratory parameters (haematology, clinical chemistry, urinalysis), physical examination, 12-lead electrocardiography (ECG), and vital signs. To assess safety in the fed versus fasted state, the period during and just after the fasted day was considered relevant to the fasted dose (Days 4–7), and similarly, the fed day and subsequent days were considered relevant to the fed state (Days 11–14). Any AE occurring after the first dose of study treatment and up to 28 days after the last dose of study treatment was included in the AE summaries.\nThe safety analysis set comprised all patients who received at least one dose of AZD5363. All safety data are presented descriptively."}, "[5]": {"settings": "Day 11, fed (standardized meal)"}, "[6]": {"settings": "tablet, N = 9, 90% CI where printed in brackets"}, "[7]": {"settings": "tablet, Day 15 onward, partially fasted, N = 12"}, "[8]": {"settings": "tablet, Days 4–7, fasted dose, N = 12"}}}
{"substance": "4-amino-N-[(1S)-1-(4-chlorophenyl)-3-hydroxypropyl]-1-(7H-pyrrolo[2,3-d]pyrimidin-4-yl)piperidine-4-carboxamide [AZD5363]", "values": [{"measurement": "Intra-patient variability for AUCτ", "setting": "[1]; Part A, estimated", "value": 20, "unit": "%"}, {"measurement": "Intra-patient variability for Cmax", "setting": "[1]; Part A, estimated", "value": 22, "unit": "%"}, {"measurement": "Intra-subject variability in AUCτ and Cmax", "setting": "[1]; Parts A and B", "value": "around 20 % CV"}, {"measurement": "Pre-dose plasma concentration, geometric least-squares mean", "setting": "[2]; Day 8, 3 days after the last dose on Day 4", "value": 3.34, "unit": "ng/mL"}, {"measurement": "Average steady-state concentration over the 12-h dosing interval (geometric mean AUCτ/12)", "setting": "[2]; Day 11", "value": 678, "unit": "ng/mL"}, {"measurement": "AUCτ, Gmean (CV%)", "setting": "[2]; Day 4, overnight fasted", "value": "9116 (16.8) h ng/mL"}, {"measurement": "Cmax, Gmean (CV%)", "setting": "[2]; Day 4, overnight fasted", "value": "1842 (31.1) ng/mL"}, {"measurement": "Cmin, Gmean (CV%)", "setting": "[2]; Day 4, overnight fasted", "value": "218.5 (30.3) ng/mL"}, {"measurement": "tmax, median (range)", "setting": "[2]; Day 4, overnight fasted", "value": "0.6 (0.5–4) h"}, {"measurement": "AUCτ, Gmean (CV%)", "setting": "[2]; [5]", "value": "8136 (33.9) h ng/mL"}, {"measurement": "Cmax, Gmean (CV%)", "setting": "[2]; [5]", "value": "1239 (23.3) ng/mL"}, {"measurement": "Cmin, Gmean (CV%)", "setting": "[2]; [5]", "value": "262.3 (58.6) ng/mL"}, {"measurement": "tmax, median (range)", "setting": "[2]; [5]", "value": "2.0 (2–4.3) h"}, {"measurement": "AUCτ GLSM ratio fed:fasted", "setting": "[2]; [6]", "value": 0.89}, {"measurement": "Cmax GLSM ratio fed:fasted", "setting": "[2]; [6]", "value": 0.67}, {"measurement": "Changes in ECG findings, vital signs or physical examinations", "setting": "[3]", "value": "no clinically significant changes"}, {"measurement": "Patients with serious AEs (SAEs)", "setting": "[3]; 7 of 18 patients, in two the events occurred before start of treatment", "value": 38.9, "unit": "%"}, {"measurement": "Plasma glucose (with plasma insulin and C-peptide)", "setting": "[3]; majority of patients, similar for tablet and capsule", "value": "Elevations in plasma glucose"}, {"measurement": "Number of SAEs", "setting": "[4]; in six patients of 12", "value": 11}, {"measurement": "Abdominal pain, All", "setting": "[4]; [7]", "value": "1 (8.3) Number of patients (%)"}, {"measurement": "Abdominal pain, Grade ≥ 3", "setting": "[4]; [7]", "value": "1 (8.3) Number of patients (%)"}, {"measurement": "Anaemia, All", "setting": "[4]; [7]", "value": "1 (8.3) Number of patients (%)"}, {"measurement": "Anaemia, Grade ≥ 3", "setting": "[4]; [7]", "value": "1 (8.3) Number of patients (%)"}, {"measurement": "Any AE (causally related), All", "setting": "[4]; [7]", "value": "10 (83.3) Number of patients (%)"}, {"measurement": "Any AE (causally related), Grade ≥ 3", "setting": "[4]; [7]", "value": "5 (41.7) Number of patients (%)"}, {"measurement": "Any AE (irrespective of causality), All", "setting": "[4]; [7]", "value": "12 (100.0) Number of patients (%)"}, {"measurement": "Any AE (irrespective of causality), Grade ≥ 3", "setting": "[4]; [7]", "value": "7 (58.3) Number of patients (%)"}, {"measurement": "Diarrhoea, All", "setting": "[4]; [7]", "value": "8 (66.7) Number of patients (%)"}, {"measurement": "Diarrhoea, Grade ≥ 3", "setting": "[4]; [7]", "value": "1 (8.3) Number of patients (%)"}, {"measurement": "Hyperglycaemia, All", "setting": "[4]; [7]", "value": "6 (50.0) Number of patients (%)"}, {"measurement": "Hyperglycaemia, Grade ≥ 3", "setting": "[4]; [7]", "value": "5 (41.7) Number of patients (%)"}, {"measurement": "Hypokalaemia, All", "setting": "[4]; [7]", "value": "1 (8.3) Number of patients (%)"}, {"measurement": "Hypokalaemia, Grade ≥ 3", "setting": "[4]; [7]", "value": "1 (8.3) Number of patients (%)"}, {"measurement": "Pneumonia, All", "setting": "[4]; [7]", "value": "1 (8.3) Number of patients (%)"}, {"measurement": "Pneumonia, Grade ≥ 3", "setting": "[4]; [7]", "value": "1 (8.3) Number of patients (%)"}, {"measurement": "Rash macular, All", "setting": "[4]; [7]", "value": "1 (8.3) Number of patients (%)"}, {"measurement": "Rash macular, Grade ≥ 3", "setting": "[4]; [7]", "value": "0 Number of patients (%)"}, {"measurement": "Rash maculopapular, All", "setting": "[4]; [7]", "value": "2 (16.7) Number of patients (%)"}, {"measurement": "Rash maculopapular, Grade ≥ 3", "setting": "[4]; [7]", "value": "2 (16.7) Number of patients (%)"}, {"measurement": "Rash papular, All", "setting": "[4]; [7]", "value": "0 Number of patients (%)"}, {"measurement": "Rash papular, Grade ≥ 3", "setting": "[4]; [7]", "value": "0 Number of patients (%)"}, {"measurement": "Skin discolouration, All", "setting": "[4]; [7]", "value": "1 (8.3) Number of patients (%)"}, {"measurement": "Skin discolouration, Grade ≥ 3", "setting": "[4]; [7]", "value": "1 (8.3) Number of patients (%)"}, {"measurement": "Abdominal pain, All", "setting": "[4]; [8]", "value": "0 Number of patients (%)"}, {"measurement": "Abdominal pain, Grade ≥ 3", "setting": "[4]; [8]", "value": "0 Number of patients (%)"}, {"measurement": "Anaemia, All", "setting": "[4]; [8]", "value": "1 (8.3) Number of patients (%)"}, {"measurement": "Anaemia, Grade ≥ 3", "setting": "[4]; [8]", "value": "0 Number of patients (%)"}]}
